Positions of bridges follow the written chain, without caps; N, C: chain ends. No end group written: not given here.
Key:
[1] = test system: P2X7 in Neuro-2a cells; test: ATP-induced Ca2+ influx (Fluo-8 AM); type: cell-based, mouse; conditions: for reduction of calcium level: 30 min pre-incubation, 1 mM ATP
Experimental: (§1) Neuro-2a neuroblastoma cells (ATCC® CCL-131™) were obtained from American Type Culture Collection (Manassas, VA, USA). The cells were cultivated in DMEM medium (BioloT, St. Petersburg, Russia) supplemented with 10% of fetal bovine serum (BioloT, St. Petersburg, Russia) and 1% penicillin/streptomycin (BioloT, St. Petersburg, Russia) at 37 °C and 5% CO2. Initially, cells were incubated in cultural flasks until sub-confluent (~80%). For testing, Neuro-2a cells were seeded in 96-well plates and experiments were started after 24 h.
Neuro-2a cells were seeded in 96-well plates at a density of 4 × 10^4 cells/well and incubated in DMEM for 24 h at 37 °C, 5% CO2. Then the cells were washed twice with culture medium and loaded with 5 μM Fluo-8 AM (Abcam, Cambridge, UK) dye and 1 μM Pluronic® F-127 (Sigma-Aldrich, St. Louis, MO, USA), and incubated for 40 min at 37 °C in HBSS: 140 mM NaCl, 5 mM KCl, 0.8 mM MgCl2, 2 mM CaCl2, 10 mM glucose, 10 mM HEPES, pH 7.4. Then the cells were washed two times with the same solution but without the fluorescent dye and treated with the studied peptides for 30 min at RT in the dark. In some experiments Ca^2+-free medium was used: 140 mM NaCl, 5 mM KCl, 0.8 mM MgCl2, 10 mM glucose, 10 mM HEPES, 5 mM EGTA, pH 7.4. ATP (1 mM final concentration) was added using a microinjector (20 μL/well) 10 s later the baseline recording and the readings were taken up to 50 s in 1 s intervals. The standard P2X7 inhibitor, A438079 (Sigma-Aldrich, St. Louis, MO, USA), was used as inhibitory control. Ionomycin (Sigma-Aldrich, St. Louis, MO, USA) and BHQ were used to generate a generic calcium signal in cells. 2,5,-di(t-butyl) hydroquinone (BHQ) was synthesized and kindly provided by Dr. Polonik S.N. (PIBOC FEBRAS). Fluo-8 was excited at 485 nm, and the emission at 520 nm was measured with a PHERAstar®FS plate reader (BMG LABTECH, Ortenberg, Germany). The data were processed by MARS Data Analysis v. 3.01R2 (BMG Labtech, Ortenberg, Germany). Mean values and standard error of peak height calcium were calculated.
(§2) All data were obtained in three independent replicates and calculated values were expressed as mean ± standard error of the mean (SEM). The Student’s t-test was performed using SigmaPlot 14.0 (Systat Software Inc., San Jose, CA, USA) to determine statistical significance.

[2] = test system: Neuro-2a cells; test: Cytoprotection against ATP-induced cell death (MTT assay); type: cell-based, mouse; conditions: long-time application of ATP (4 mM, 48 h)
Experimental: as §1
The cytoprotective effect of peptides was assessed in Neuro-2a cells using the MTT assay. In brief, an aliquot (180μL) of cell suspension with a nominal cell density of 3 × 10^4 cells/well was dispensed into 96-well plates. The cells were incubated for 24 h in a humidified atmosphere containing 5% CO2 to allow cell attachment. At the end of the preincubation period, ATP (Sigma-Aldrich, St. Louis, MO, USA) was added to the cells at a concentration of 4 mM. Studied peptides were added to the cells at concentrations of 0.1, 1.0 or 10.0 μM for 1h prior to the addition of ATP. After incubation for 48 h at 37 °C cell viability was detected using the MTT as described previously. The standard P2X7 inhibitor, A438079 (Sigma-Aldrich, St. Louis, MO, USA), at a concentration of 10 μM was used as a positive control.
as §2

[3] = test system: P2X7 in Neuro-2a cells; test: ATP-induced YO-PRO-1 uptake (P2X7 pore formation); type: cell-based, mouse; conditions: short-term effect
Experimental: as §1
Neuro-2a cells were seeded in 96 well plates at a density of 4 × 10^4 cells/well and incubated in DMEM for 24 h, 37 °C, 5% CO2. Then the cells were washed once with HBSS and filled with 180 μL of the same buffer. YO-PRO-1 (Sigma-Aldrich, St. Louis, MO, USA, 5 μM final concentration) was loaded into the wells, the cells were incubated for 15 min at 37 °C. Further, the studied peptides were added to the cells at concentrations of 10, 1, 0.1 and 0.01 μM and incubated for 10 min at 37 °C. After that ATP (4 mM final concentration) was added and the plates were incubated for an additional 10 min. The standard P2X7R inhibitor, A438079 (Sigma-Aldrich, St. Louis, MO, USA), was used as inhibitory control. Then the cells were washed three times with the buffer solution and fluorescence intensity was measured with PHERAstar FS plate reader (BMG, LABTECH, Ortenberg, Germany) at λex = 485 nm and λem= 520 nm in the “End Point” mode. The effectiveness of compounds was evaluated relative to control without ATP.
as §2

[4] = test system: Kv1.1, Kv1.2, Kv1.3 and Kv1.6 isoforms as well as insect Shaker IR; conditions: range over channels and both peptides, ref [16],[25]; cited from earlier work
Text: The studied peptides are analogs of sea anemone Kunitz-type peptides and attract our attention due to their wide spectrum of biological activity and ability to interact with important molecular targets.

Sequence: RGICSEPKVVGPCKAGLRRFYYDSETGECKPFIYGGCKGNKNNFETLHACRGICRA (disulfide 4-54, 13-37, 29-50 (inferred)) [HCRG1]
- reduction of calcium level ([1]; 0.1 μM peptide, mean ± SE, n = 3): 57.5 ± 11.6%
- reduction of calcium level ([1]; 0.1–10 μM peptide): significantly reduced the calcium level
- effect on Ca2+ influx (summary in discussion) ([1]; short-term effect): a significant effect on Ca^2+ influx into cells
- protection from ATP-induced death [2]: partially protected neuroblastoma cells from ATP-induced death
- entry of YO-PRO-1 into cells (summary in discussion) [3]: regulating the entry of low molecular weight fluorescent dye YO-PRO-1 into cells
- IC50 [4]: 12 to 400 nM

Reference: PMC10053369, “Recombinant Analogs of Sea Anemone Kunitz-Type Peptides Influence P2X7 Receptor Activity in Neuro-2a Cells” (Marine Drugs, 2023)
